# Test results taken from US20090035758A1, “Method of Measurement of Micronucleated Erythrocyte Populations” (BECKMAN COULTER, INC., priority 2007, published 2009).
# System: micronucleated reticulocytes (MNPCE) in mouse peripheral blood
# Details: in vivo, 50 mg/kg, 24 h
# Description: 200 to 300 μl of a peripheral blood sample was collected from a mouse using orbital veinipuncture into a test tube containing heparin. The sample was kept at room temperature for analysis.
# 10 μl of the anticoagulated blood sample was diluted with 290 μl of the isotonic diluent of Example 1 in a test tube. 10 μl of anti CD71-FITC monoclonal antibody at saturating concentration was added into the diluted blood, and the test tube was vortexed and then incubated at room temperature for 30 minutes. 20 μl of the diluted sample containing anti CD71-FITC antibody was taken into a second test tube, and 400 μl of the permeation reagent of Example 1 was added and vortexed immediately. The formed permeation sample mixture was incubated at room temperature for 10 minutes. […]
# The final sample mixture was analyzed on a FC500 MCL cytometer (Beckman Coulter, Inc., Fullerton, Calif.). […]
# Both FL1 and FL4 were in a logarithmic scale. FL1 and FL4 were the fluorescent signals of the final sample mixture detected at 525 nm and 675 nm, respectively. […]
# A mouse was treated with methyl methane sulfonate with a dosage of 50 mg/Kg 24 hours prior to the blood collection. The peripheral blood was collected and processed as described in Example 2, and the final sample mixture was analyzed on the same FC500 MCL cytometer with the identical instrument setting.
structure (smiles),measurement,value
COS(C)(=O)=O [methyl methane sulfonate],micronucleated reticulocytes (percentage of reticulocytes containing micronuclei),1.30%
